From patent publication US7271274B2, “Phenolic antioxidants for the treatment of disorders including arthritis, asthma and coronary artery disease” (AhteroGenics, Inc., priority 2004, dated 2007)

Tests used:
[1] = system: VCAM-1; test: In Vitro VCAM-1 Assay - Method 1 (TNF-α stimulated endothelial cells, surface VCAM-1 ELISA); format: cell-based; settings: Homo sapiens, Endothelial cell; HAEC or HPAEC, TNF-α 1 ng/ml with compound approximately 16 hours
Experimental: Cell Culture and compound dosing: Cultured primary human aortic (HAEC) or pulmonary (HPAEC) endothelial cells were obtained from Clonetics, Inc., and were used below passage 9. Cells were seeded in 96 well plates such that they would reach 90–95% confluency by the following day. On the following day the cells were stimulated with TNF-α (1 ng/ml) in the presence or absence of compounds dissolved in DMSO such that the final concentration of DMSO is 0.25% or less. To establish a dose curve for each compound, four concentrations in 2- to 5-fold increments were used. Cells were exposed to TNF-α and compounds for approximately 16 hours. The next day the cells were examined under microscope to score for visual signs of toxicity or cell stress.
Following 16 hr exposure to TNF-α and compound the media was discarded and the cells were washed once with Hanks Balanced Salt Solution (HBSS)/Phosphate buffered saline (PBS) (1:1). Primary antibodies against VCAM-1 (0.25 μg/ml in HBSS/PBS+5% FBS) were added and incubated for 30–60 minutes at 37° C. Cells were washed with HBSS/PBS three times, and secondary antibody Horse Radish Peroxidase (HRP)-conjugated goat anti-mouse IgG (1:500 in HBSS/PBS+5% FBS) were added and incubated for 30 minutes at 37° C. Cells were washed with HBSS/PBS four time and TMB substrate were added and incubated at room temperature in the dark until there was adequate development of blue color. The length of time of incubation was typically 5–15 minutes. 2N sulfuric acid was added to stop the color development and the data was collected by reading the absorbance on a BioRad ELISA plate reader at OD 450 nm. The results are expressed as IC50 values (the concentration (micromolar) of compound required to inhibit 50% of the maximal response of the control sample stimulated by TNF-α only). IC50's of tested compounds are tabulated in Biological Table 1.

Question: Which IC50 [1] does the source give for COCCOCCOCCOc1c(C(C)(C)C)cc(SC(C)(C)Sc2cc(C(C)(C)C)c(O)c(C(C)(C)C)c2)cc1C(C)(C)C [Ex-19, 2,6-Di-tert-butyl-4-[1-(3,5-di-tert-butyl-4-{2-[2-(2-methoxyethoxy)-ethoxy]ethoxy}-phenyl-sulfanyl)-1-methylethylsulfanyl]phenol] here?
Answer: > 50 µM

Question: For CC(C)(Sc1cc(C(C)(C)C)c(O)c(C(C)(C)C)c1)Sc1cc(C(C)(C)C)c(OCC(=O)NCCC(=O)O)c(C(C)(C)C)c1 [Ex-5, 3-(2-{2,6-Di-tert-butyl-4-[1-(3,5-di-tert-butyl-4-hydroxyphenylsulfanyl)-1-methylethylsulfanyl]phenoxy}acetylamino)propionic acid], which IC50 [1] is on record?
Answer: 6 µM

Question: For CC(C)(Sc1cc(C(C)(C)C)c(O)c(C(C)(C)C)c1)Sc1cc(C(C)(C)C)c(OCC(=O)NC(CO)CO)c(C(C)(C)C)c1 [Ex-6, 2-{2,6-Di-tert-butyl-4-[1-(3,5-di-tert-butyl-4-hydroxyphenylsulfanyl)-1-methyl-ethylsulfanyl]phenoxy}-N-(2-hydroxy-1-hydroxymethyl-ethyl)acetamide], which IC50 [1] is on record?
Answer: 6 µM

Question: And the melting point?
Answer: 163 to 164 °C

Question: With CC(C)(Sc1cc(C(C)(C)C)c(O)c(C(C)(C)C)c1)Sc1cc(C(C)(C)C)c(OCCO)c(C(C)(C)C)c1 [compound 17, 2,6-Di-tert-butyl-4-{1-[3,5-di-tert-butyl-4-(2-hydroxy-ethoxy)-phenylsulfanyl]-1-methyl-ethylsulfanyl}-phenol] as the compound, how does the melting point read?
Answer: 146 to 147 °C

Question: With CCOC1O[C@H](CO)[C@@H](COc2c(C(C)(C)C)cc(SC(C)(C)Sc3cc(C(C)(C)C)c(O)c(C(C)(C)C)c3)cc2C(C)(C)C)O1 (stereo partly drawn) [compound 9, 2,6-Di-tert-butyl-4-{1-[3,5-di-tert-butyl-4-(2-ethoxy-5(R)-hydroxymethyl-[1,3]dioxolan-4(R)-ylmethoxy)-phenylsulfanyl]-1-methyl-ethylsulfanyl}-phenol] as the compound, how does the melting point read?
Answer: 60 to 62 °C

Question: Which melting point does the source give for COC[C@H](O)[C@@H](O)COc1c(C(C)(C)C)cc(SC(C)(C)Sc2cc(C(C)(C)C)c(O)c(C(C)(C)C)c2)cc1C(C)(C)C [Ex-15, 1-{2,6-Di-tert-butyl-4-[1-(3,5-di-tert-butyl-4-hydroxyphenylsulfanyl)-1-methylethylsulfanyl]phenoxy}-4-methoxybutane-2(S),3(S)-diol] here?
Answer: 62 to 64 °C

Question: With CN(CC(=O)O)C(=O)COc1c(C(C)(C)C)cc(SC(C)(C)Sc2cc(C(C)(C)C)c(O)c(C(C)(C)C)c2)cc1C(C)(C)C [Ex-4, [(2-{2,6-Di-tert-butyl-4-[1-(3,5-di-tert-butyl-4-hydroxyphenylsulfanyl)-1-methylethylsulfanyl]phenoxy}acetyl)methylamino]acetic acid] as the compound, how does the IC50 [1] read?
Answer: 7 µM

Question: What about the melting point of the same compound?
Answer: 115 to 119 °C

Question: With CC(C)(Sc1cc(C(C)(C)C)c(O)c(C(C)(C)C)c1)Sc1cc(C(C)(C)C)c(OCC(=O)NCC(=O)O)c(C(C)(C)C)c1 [Ex-3, (2-{2,6-Di-tert-butyl-4-[1-(3,5-di-tert-butyl-4-hydroxyphenylsulfanyl)-1-methylethylsulfanyl]phenoxy}acetylamino)acetic acid] as the compound, how does the IC50 [1] read?
Answer: 6 µM
